Measured values published in US20230390402A1, “IONIZABLE CATIONIC LIPID ANALOG MATERIAL AND USE THEREOF AS DRUG DELIVERY CARRIER” (GUANGZHOU LIDE BIOMEDICINE TECHNOLOGY CO., LTD., priority 2021, published 2023).

Tests used:
HeLa cells [1] = experiment: Transfection of luciferase-expressing plasmid DNA in HeLa cells; format: cell-based; settings: 24 h, compared with Lipofectamine 2000
Procedure: In this example, with luciferase-expressing plasmid DNA as a reporter gene, a gene transfection efficiency of a cationic lipid analog material in HeLa cells was detected. A specific operation method was as follows: HeLa cells were inoculated in a 96-well plate and cultured in an incubator for 12 h; each of different cationic lipid analog materials was mixed with luciferase-expressing plasmid DNA (0.5 μg) in 40 μL of a sodium acetate buffer (25 mM, pH 5.2), and resulting mixtures each were allowed to stand for 10 min and then diluted with 460 μL of a Opti-MEM medium to obtain plasmid DNA-loaded cationic lipid analog complex particle solutions; a medium for the HeLa cells in the plate was removed, then the HeLa cells were washed once with PBS, and the complex particle solutions each were added in a volume of 125 μL; the cells were further cultured for 24 h, then a resulting culture supernatant was discarded, and the cells were fully lysed; and a substrate was added at 50 μl/well, and an expression level of luciferase was detected by a multi-mode microplate reader.

HeLa cells [2] = experiment: Transfection of GFP-expressing plasmid DNA in HeLa cells (FCM); format: cell-based; settings: material 0.25-8 μg/well, plasmid DNA 0.5 μg/well, 24 h, compared with Lipofectamine 2000
Procedure: In this experiment, with GFP-expressing plasmid DNA as a reporter gene, a gene transfection efficiency of a cationic lipid analog material in HeLa cells was detected. A specific method was as follows:
HeLa cells were inoculated in a 24-well plate and cultured in an incubator for 12 h; each of different cationic lipid analog materials—(0.25 μg/well to 8 μg/well) was mixed with GFP-expressing plasmid DNA (0.5 μg/well) in 40 μL of a sodium acetate buffer (25 mM, […] resulting mixtures each were allowed to stand for 10 min and then diluted with 460 μL of a Opti-MEM medium to obtain plasmid DNA-loaded cationic lipid analog complex particle solutions; a medium for the HeLa cells in the plate was removed, then the HeLa cells were washed once with PBS, and the complex particle solutions each were added; and the cells were further cultured for 24 h, and then a plasmid DNA transfection efficiency in cells was analyzed by FCM. A commercial gene transfection reagent Lipofectamine 2000 was adopted as a positive control.

DC 2.4 cells = experiment: Transfection of eGFP-expressing mRNA in DC 2.4 cells (FCM and LSCM); format: cell-based, mouse; settings: material 0.25-2 μg/well, mRNA 0.2 μg/well, 24 h, compared with Lipofectamine 2000
Procedure: In this experiment, with eGFP-mRNA as model mRNA, an mRNA transfection efficiency of a cationic lipid analog material in DC 2.4 cells was detected. A specific operation method was as follows:
DC 2.4 cells were inoculated in a 48-well plate and cultured in an incubator for 12 h; each of different cationic lipid analog materials (0.25 μg/well to 2 μg/well) was mixed with eGFP-expressing mRNA (0.2 μg/well) in 20 μL of a sodium acetate buffer (25 mM, pH 5.2), and resulting mixtures each were allowed to stand for 10 min and then diluted with 230 μL of a Opti-MEM medium to obtain mRNA-loaded complex particle solutions; a medium for the DC 2.4 cells in the plate was removed, then the DC 2.4 cells were washed once with PBS, and the complex particle solutions each were added; and the cells were cultured for 24 h, an mRNA transfection efficiency in cells was observed by FCM and LSCM. A commercial gene transfection reagent Lipofectamine 2000 was adopted as a positive control.

HeLa cells [3] = experiment: Intracellular delivery of BSA-FITC in HeLa cells, analysed by flow cytometry; format: cell-based; settings: material 0.25-8 μg/well, BSA-FITC 2 μg/well, 4 h, FCM, positive control PULSin®
Procedure: In this example, BSA-FITC was used as a protein model to investigate the intracellular protein delivery of a cationic lipid analog material.
A specific experimental method was as follows: HeLa cells were inoculated in a 24-well plate and cultured in an incubator for 12 h in advance; different cationic lipid analog materials (0.25 μg/well to 8 μg/well) each were mixed with BSA-FITC (2 μg/well) in 50 μl of a N-2-hydroxyethylpiperazine-N-2-ethane sulfonic acid (HEPES) buffer, and resulting mixtures each were diluted with 450 μl of a serum-free Dulbecco's Modified Eagle Medium (DMEM) to obtain protein/cationic lipid analog complex solutions; a medium for the HeLa cells in the plate was removed, then the HeLa cells were washed once with phosphate buffered saline (PBS), and the protein/cationic lipid analog complex solutions each were added; and the cells were further cultured for 4 h, and then a fluorescence intensity and a positive cell rate in each well were analyzed by flow cytometry (FCM). In this experiment, the commercial protein delivery reagent PULSin® was adopted as a positive control.

[4] = system: A549 cells (A549-Luc) stably expressing the luciferase reporter gene; experiment: siRNA transfection and luciferase gene silencing in A549-Luc cells; format: cell-based; settings: material 0.5-3 μg/well, siRNA 100 nM, 48 h
Excerpt: In this experiment, with I2R2C18-1A1, I2R3C18-1A1, I2R2C18-2A1, and I2R3C18-2A1 as representative cationic lipid analog materials, A549 cells (A549-Luc) stably expressing the luciferase reporter gene as model cells, and a siRNA sequence specifically targeting the luciferase reporter gene as model siRNA, siRNA transfection and delivery effects of the cationic lipid analog materials were investigated. A specific operation method was as follows:
Luciferase-expressing A549 cells (A549-Luc) were inoculated in a 96-well plate and cultured in an incubator for 12 h; each of different materials (0.5 μg/well to 3 μg/well) was mixed with siRNA in […] of a sodium acetate buffer (25 mM, pH 5.2), and resulting mixtures each were allowed to stand for 10 min and then diluted with 460 μL of a Opti-MEM medium to obtain siRNA-loaded complex particle solutions (final siRNA concentration: 100 nM); a medium for the A549-Luc cells in the plate was removed, then the A549-Luc cells were washed once with PBS, and the complex particle solutions each were added in a volume of 125 μL; the cells were further cultured for 48 h, then a resulting culture supernatant was discarded, and the cells were fully lysed; and a substrate was added at 50 μl/well, and an expression level of luciferase was detected by a multi-mode microplate reader.

## CCCCCCCCCCCCCC(=O)N(CCCCN(C)C)C(C(=O)NCCCCCCNC(=O)C(C(C)C)N(CCCN(C)C)C(=O)CCCCCCCCCCCCC)C(C)C (centres unmarked) [I1R2C14A1]
HeLa cells [1]
  transfection efficiency of luciferase-expressing plasmid DNA (luciferase expression): equivalent to or higher than
HeLa cells [2]
  transfection efficiency of GFP-expressing plasmid DNA (positive rate): equivalent to or higher than
DC 2.4 cells
  mRNA transfection efficiency (eGFP-mRNA): equivalent to or higher than

## CCCCCCCCCCCCCC(=O)N(CCC1CCCN1C)C(C(=O)NCCCCCCNC(=O)C(C(C)C)N(CCC1CCCN1C)C(=O)CCCCCCCCCCCCC)C(C)C (centres unmarked) [I1R11C14A1]
HeLa cells [1]
  transfection efficiency of luciferase-expressing plasmid DNA (luciferase expression): equivalent to or higher than
HeLa cells [2]
  transfection efficiency of GFP-expressing plasmid DNA (positive rate): equivalent to or higher than
DC 2.4 cells
  mRNA transfection efficiency (eGFP-mRNA): equivalent to or higher than

## CCCCCCCCCCCCCC(=O)N(CCN(C)C)C(C(=O)NCCOCCOCCNC(=O)C(C(C)C)N(CCN(C)C)C(=O)CCCCCCCCCCCCC)C(C)C (centres unmarked) [I2R1C14A1]
HeLa cells [1]
  transfection efficiency of luciferase-expressing plasmid DNA (luciferase expression): equivalent to or higher than
HeLa cells [2]
  transfection efficiency of GFP-expressing plasmid DNA (positive rate): equivalent to or higher than
DC 2.4 cells
  mRNA transfection efficiency (eGFP-mRNA): equivalent to or higher than

## CCCCCCCCCCCCCCCC(=O)N(CCN(C)C)C(C(=O)NCCOCCOCCNC(=O)C(C(C)C)N(CCN(C)C)C(=O)CCCCCCCCCCCCCCC)C(C)C (centres unmarked) [I2R1C16A1]
HeLa cells [1]
  transfection efficiency of luciferase-expressing plasmid DNA (luciferase expression): equivalent to or higher than
HeLa cells [2]
  transfection efficiency of GFP-expressing plasmid DNA (positive rate): equivalent to or higher than
DC 2.4 cells
  mRNA transfection efficiency (eGFP-mRNA): equivalent to or higher than

## CCCCCCCC/C=C\CCCCCCCC(=O)N(CCN(C)C)C(C(=O)NCCOCCOCCNC(=O)C(C(C)C)N(CCN(C)C)C(=O)CCCCCCC/C=C\CCCCCCCC)C(C)C (centres unmarked) [I2R1C18-1A1]
HeLa cells [1]
  transfection efficiency of luciferase-expressing plasmid DNA (luciferase expression): equivalent to or higher than
HeLa cells [2]
  transfection efficiency of GFP-expressing plasmid DNA (positive rate): equivalent to or higher than
DC 2.4 cells
  mRNA transfection efficiency (eGFP-mRNA): equivalent to or higher than

## CCCCCCCCCCCCCCCC(=O)N(CCCN(C)C)C(C(=O)NCCOCCOCCNC(=O)C(C(C)C)N(CCCN(C)C)C(=O)CCCCCCCCCCCCCCC)C(C)C (centres unmarked) [I2R2C16A1]
HeLa cells [3]
  intracellular delivery efficiency for BSA-FITC (fluorescence intensity, positive cell rate): high protein delivery efficiencies
HeLa cells [1]
  transfection efficiency of luciferase-expressing plasmid DNA (luciferase expression): equivalent to or higher than
HeLa cells [2]
  transfection efficiency of GFP-expressing plasmid DNA (positive rate): equivalent to or higher than
DC 2.4 cells
  mRNA transfection efficiency (eGFP-mRNA): equivalent to or higher than

## CCCCCCCC/C=C\CCCCCCCC(=O)N(CCCN(C)C)C(C(=O)NCCOCCOCCNC(=O)C(C(C)C)N(CCCN(C)C)C(=O)CCCCCCC/C=C\CCCCCCCC)C(C)C (centres unmarked) [I2R2C18-1A1]
HeLa cells [1]
  transfection efficiency of luciferase-expressing plasmid DNA (luciferase expression): equivalent to or higher than
HeLa cells [2]
  transfection efficiency of GFP-expressing plasmid DNA (positive rate): equivalent to or higher than
[4]
  dose dependence of gene silencing efficiency: increases with the increase of an amount of the cationic lipid analog material
  siRNA transfection and silencing of luciferase reporter gene expression: can transfect siRNA into cells to specifically silence the expression of the luciferase reporter gene
DC 2.4 cells
  mRNA transfection efficiency (eGFP-mRNA): equivalent to or higher than

## CCCCC/C=C\C/C=C\CCCCCCCC(=O)N(CCCN(C)C)C(C(=O)NCCOCCOCCNC(=O)C(C(C)C)N(CCCN(C)C)C(=O)CCCCCCC/C=C\C/C=C\CCCCC)C(C)C (centres unmarked) [I2R2C18-2A1]
HeLa cells [1]
  transfection efficiency of luciferase-expressing plasmid DNA (luciferase expression): equivalent to or higher than
HeLa cells [2]
  transfection efficiency of GFP-expressing plasmid DNA (positive rate): equivalent to or higher than
[4]
  dose dependence of gene silencing efficiency: increases with the increase of an amount of the cationic lipid analog material
  siRNA transfection and silencing of luciferase reporter gene expression: can transfect siRNA into cells to specifically silence the expression of the luciferase reporter gene
DC 2.4 cells
  mRNA transfection efficiency (eGFP-mRNA): equivalent to or higher than

## CCCCCCCCCCCCCCCCCCCC(=O)N(CCCN(C)C)C(C(=O)NCCOCCOCCNC(=O)C(C(C)C)N(CCCN(C)C)C(=O)CCCCCCCCCCCCCCCCCCC)C(C)C (centres unmarked) [I2R2C20A1]
HeLa cells [3]
  intracellular delivery efficiency for BSA-FITC (fluorescence intensity, positive cell rate): high protein delivery efficiencies

## CCCCCCCCCCCCCCCC(=O)C(CCCN(CC)CC)C(C(=O)NCCOCCOCCNC(=O)C(C(C)C)N(CCCN(CC)CC)C(=O)CCCCCCCCCCCCCCC)C(C)C (centres unmarked) [I2R3C16A1]
HeLa cells [1]
  transfection efficiency of luciferase-expressing plasmid DNA (luciferase expression): equivalent to or higher than
HeLa cells [2]
  transfection efficiency of GFP-expressing plasmid DNA (positive rate): equivalent to or higher than
DC 2.4 cells
  mRNA transfection efficiency (eGFP-mRNA): equivalent to or higher than

## CCCCC/C=C\C/C=C\CCCCCCCC(=O)N(CCCN(CC)CC)C(C(=O)NCCOCCOCCNC(=O)C(C(C)C)N(CCCN(CC)CC)C(=O)CCCCCCC/C=C\C/C=C\CCCCC)C(C)C (centres unmarked) [I2R3C18-2A1]
HeLa cells [1]
  transfection efficiency of luciferase-expressing plasmid DNA (luciferase expression): equivalent to or higher than
HeLa cells [2]
  transfection efficiency of GFP-expressing plasmid DNA (positive rate): equivalent to or higher than
[4]
  dose dependence of gene silencing efficiency: increases with the increase of an amount of the cationic lipid analog material
  siRNA transfection and silencing of luciferase reporter gene expression: can transfect siRNA into cells to specifically silence the expression of the luciferase reporter gene
DC 2.4 cells
  mRNA transfection efficiency (eGFP-mRNA): equivalent to or higher than

## CCCCCCCCCCCCCCCCCC(=O)C(CCCN(CC)CC)C(C(=O)NCCOCCOCCNC(=O)C(C(C)C)N(CCCN(CC)CC)C(=O)CCCCCCCCCCCCCCCCC)C(C)C (centres unmarked) [I2R3C18A1]
HeLa cells [1]
  transfection efficiency of luciferase-expressing plasmid DNA (luciferase expression): equivalent to or higher than
HeLa cells [2]
  transfection efficiency of GFP-expressing plasmid DNA (positive rate): equivalent to or higher than
DC 2.4 cells
  mRNA transfection efficiency (eGFP-mRNA): equivalent to or higher than

## CCCCC/C=C\C/C=C\CCCCCCCC(=O)N(CCC1CCCN1C)C(C(=O)NCCOCCOCCNC(=O)C(C(C)C)N(CCC1CCCN1C)C(=O)CCCCCCC/C=C\C/C=C\CCCCC)C(C)C (centres unmarked) [I2R11C18-2A1]
HeLa cells [1]
  transfection efficiency of luciferase-expressing plasmid DNA (luciferase expression): equivalent to or higher than
HeLa cells [2]
  transfection efficiency of GFP-expressing plasmid DNA (positive rate): equivalent to or higher than
DC 2.4 cells
  mRNA transfection efficiency (eGFP-mRNA): equivalent to or higher than
